From the NIST ThermoML archive (doi:10.1021/je050402s)
Numbers after ± are expanded uncertainties.

Assay: xn = mol fraction of the nth substance listed
Settings: 100.5 kPa, Liquid; for viscosity: Capillary tube (Ostwald / Ubbelohde) method

CCOC(=O)CC(C)C [ethyl 3-methylbutanoate] + CCO
Settings | mass density, 288.15 K [kg/m3] | mass density, 298.15 K [kg/m3] | mass density, 308.15 K [kg/m3] | mass density, 318.15 K [kg/m3] | viscosity, 288.15 K [mPa·s] | viscosity, 298.15 K [mPa·s] | viscosity, 308.15 K [mPa·s] | viscosity, 318.15 K [mPa·s]
x1 = 0.05 | 802.64 ± 0.44 | 793.85 ± 0.45 | 784.95 ± 0.46 | 775.9 ± 0.48 | 1.229 ± 0.014 | 1.02 ± 0.013 | 0.852 ± 0.013 | 0.715 ± 0.013
x1 = 0.1 | 810.36 ± 0.43 | 801.39 ± 0.44 | 792.29 ± 0.46 | 783.04 ± 0.47 | 1.125 ± 0.014 | 0.945 ± 0.013 | 0.793 ± 0.013 | 0.668 ± 0.013
x1 = 0.15 | 817.13 ± 0.42 | 807.99 ± 0.44 | 798.73 ± 0.45 | 789.31 ± 0.46 | 1.057 ± 0.013 | 0.891 ± 0.013 | 0.75 ± 0.013 | 0.638 ± 0.013
x1 = 0.2 | 823.05 ± 0.42 | 813.77 ± 0.43 | 804.39 ± 0.45 | 794.81 ± 0.46 | 1.002 ± 0.013 | 0.848 ± 0.013 | 0.718 ± 0.013 | 0.618 ± 0.013
x1 = 0.25 | 828.3 ± 0.42 | 818.9 ± 0.43 | 809.39 ± 0.44 | 799.73 ± 0.46 | 0.966 ± 0.013 | 0.815 ± 0.013 | 0.695 ± 0.013 | 0.6 ± 0.013
x1 = 0.3 | 833.01 ± 0.42 | 823.53 ± 0.43 | 813.92 ± 0.44 | 804.15 ± 0.46 | 0.935 ± 0.013 | 0.791 ± 0.013 | 0.677 ± 0.013 | 0.587 ± 0.013
x1 = 0.35 | 837.23 ± 0.42 | 827.65 ± 0.43 | 817.96 ± 0.44 | 808.12 ± 0.46 | 0.908 ± 0.013 | 0.771 ± 0.013 | 0.663 ± 0.013 | 0.579 ± 0.013
x1 = 0.4 | 841.07 ± 0.42 | 831.42 ± 0.43 | 821.66 ± 0.45 | 811.75 ± 0.46 | 0.886 ± 0.013 | 0.754 ± 0.013 | 0.653 ± 0.013 | 0.571 ± 0.013
x1 = 0.45 | 844.57 ± 0.43 | 834.87 ± 0.44 | 825.05 ± 0.45 | 815.07 ± 0.46 | 0.867 ± 0.013 | 0.742 ± 0.013 | 0.645 ± 0.013 | 0.565 ± 0.013
x1 = 0.5 | 847.78 ± 0.43 | 838.02 ± 0.44 | 828.15 ± 0.46 | 818.12 ± 0.47 | 0.855 ± 0.013 | 0.733 ± 0.013 | 0.638 ± 0.013 | 0.559 ± 0.013
x1 = 0.55 | 850.72 ± 0.44 | 840.93 ± 0.45 | 831.01 ± 0.46 | 820.95 ± 0.47 | 0.847 ± 0.013 | 0.724 ± 0.013 | 0.631 ± 0.013 | 0.554 ± 0.013
x1 = 0.6 | 853.42 ± 0.45 | 843.59 ± 0.46 | 833.64 ± 0.47 | 823.56 ± 0.48 | 0.84 ± 0.013 | 0.719 ± 0.013 | 0.624 ± 0.013 | 0.55 ± 0.013
x1 = 0.65 | 855.93 ± 0.46 | 846.06 ± 0.47 | 836.09 ± 0.48 | 826 ± 0.49 | 0.835 ± 0.013 | 0.713 ± 0.013 | 0.62 ± 0.013 | 0.548 ± 0.013
x1 = 0.7 | 858.27 ± 0.47 | 848.38 ± 0.48 | 838.38 ± 0.49 | 828.28 ± 0.5 | 0.83 ± 0.013 | 0.713 ± 0.013 | 0.618 ± 0.013 | 0.547 ± 0.013
x1 = 0.75 | 860.46 ± 0.48 | 850.55 ± 0.49 | 840.55 ± 0.5 | 830.44 ± 0.51 | 0.827 ± 0.013 | 0.714 ± 0.013 | 0.619 ± 0.013 | 0.546 ± 0.013
x1 = 0.8 | 862.52 ± 0.49 | 852.6 ± 0.5 | 842.6 ± 0.51 | 832.48 ± 0.52 | 0.83 ± 0.013 | 0.716 ± 0.013 | 0.621 ± 0.013 | 0.549 ± 0.013
x1 = 0.85 | 864.44 ± 0.51 | 854.52 ± 0.51 | 844.51 ± 0.52 | 834.44 ± 0.53 | 0.833 ± 0.013 | 0.722 ± 0.013 | 0.625 ± 0.013 | 0.552 ± 0.013
x1 = 0.9 | 866.27 ± 0.52 | 856.34 ± 0.53 | 846.34 ± 0.53 | 836.27 ± 0.54 | 0.839 ± 0.014 | 0.727 ± 0.013 | 0.631 ± 0.013 | 0.556 ± 0.013
x1 = 0.95 | 868.03 ± 0.53 | 858.12 ± 0.54 | 848.15 ± 0.55 | 838.1 ± 0.55 | 0.845 ± 0.014 | 0.729 ± 0.013 | 0.634 ± 0.013 | 0.56 ± 0.013
x1 = 1 | 869.66 ± 0.55 | 859.78 ± 0.55 | 849.83 ± 0.56 | 839.81 ± 0.57 | 0.853 ± 0.014 | 0.739 ± 0.013 | 0.642 ± 0.013 | 0.566 ± 0.013
